# Where “and” joins values, the source holds several entries; their conditions need not be identical. Identical values can stand only once. Entries after “also recorded” stand apart in the source; their conditions may differ.
# Columns and labels:
# [1] = system: S. aureus biofilm cultures; test: Biofilm antibiotic killing assay; assay type: cell-based, Staphylococcus aureus; settings: minimal medium (modified M9-glucose), 24 h treatment, MMC 10 μg/mL, ciprofloxacin 5 μg/mL
# [2] = system: EHEC, S. aureus, and P. aeruginosa PAO1; assay type: cell-based; settings: mono- and co-cultures in wound-like medium, 5 h treatment
# Procedure: Overnight cultures (16 h) of EHEC, S. aureus, and P. aeruginosa PAO1 were grown in LB (TSB for S. aureus), washed with 0.85% NaCl solution, and diluted 1:1000 (as mono-cultures or co-cultures) in wound-like medium (WLM) (45% Bolton broth, 50% heparinized bovine plasma, and 5% laked horse blood). […] Samples containing S. aureus were coagulated, so sections of coagulated WLM were cut and weighed add appropriate amounts of antibiotics. Coagulated samples were triturated and vortexed to release cells prior to measuring cell viability.
# [3] = system: E. coli K-12 BW25113 biofilm; test: Biofilm dispersal assay (crystal violet); assay type: cell-based, Escherichia coli; settings: 24 h static growth then 24 h with MMC, 30° C., M9-glucose
# Procedure: Cultures were incubated for an additional 24 h with or without MMC. Biofilm levels were assayed using crystal violet staining as described previously (Lee, et al., Appl. Environ. Microbiol. 75, 1703 (2009)). Cell growth (turbidity at 620 nm) was used to normalize the total biofilm formation (absorbance at 540 nm). Data points were averaged from 15 replicate wells using at least two independent cultures.
# P. aeruginosa PA14 = test: Planktonic antibiotic killing assay; assay type: cell-based, Pseudomonas aeruginosa; settings: mid-stationary phase, rich medium; MMC 10 μg/mL, 3 h
# Procedure: In order to obtain exponential and mid-stationary phase cultures in LB, buffered LB or TSB, overnight cultures (16 h) were diluted 1:1000 in fresh medium and grown to the desired turbidity (i.e., a turbidity below 2 at 600 nm for exponential phase and a turbidity of 3 to 4 at 600 nm for mid-stationary phase). Late-stationary phase cultures in LB or buffered LB were obtained by growing overnight cultures (16 h). In order to obtain exponential and late-stationary phase cultures in M9-glucose, overnight cultures (16 h) were washed diluted 1:1000 in M9-glucose and grown for the desired period of time (i.e., a turbidity of 0.4 at 600 nm for exponential phase and 24 h of growth for late-stationary phase). Anaerobically grown cultures were maintained with ˜20% CO2, ˜79% N2, and ˜1% H2. In order to obtain rifampicin-induced persister cultures in buffered LB, overnight cultures (16 h) were diluted 1:1000 in fresh medium and grown to a turbidity of 0.8 at 600 nm. Cultures were exposed to rifampicin (100 μg/mL) for 30 min, centrifuged, and resuspended in fresh medium to remove the rifampicin.
# [4] = system: E. coli K-12 BW25113 VBNC cultures; test: VBNC antibiotic killing assay; assay type: cell-based, Escherichia coli; settings: 16 h
# Procedure: Overnight cultures (16 h) of E. coli K-12 BW25113 grown in LB were diluted 1:1000 in LB and grown to a turbidity of 3.0 at 600 nm. Cells were washed three times with 0.85% NaCl to remove nutrients and incubated in 0.85% NaCl for 32 days until the VBNC population was ˜1,000-fold higher than the culturable population. […] Samples (0.5 mL) were diluted 1:1 with LB to stimulate cellular respiration for 10 min prior to staining with 1 μL of 1 mM RedoxSensor™ Green dye and 1 μL of 20 mM propidium iodide. Samples were visualized in a hemocytometer (Hausser Scientific, Horsham, Pa., USA) using an Olympus BX61 confocal microscope (Olympus, Tokyo, Japan) at 200× magnification in order to determine viability of the VBNC population. Cell counting data was averaged from four images and experiment was performed with at least two independent cultures.
# [5] = system: pDNA of E. coli K-12 BW25113/pCA24N; test: Denaturing agarose gel electrophoresis of pDNA from treated cells; assay type: cell-based, Escherichia coli; settings: non-persisters and rifampicin-induced persisters, MMC 100 μg/mL 1 h
# Procedure: Overnight cultures (16 h) of E. coli K-12 BW25113/pCA24N grown in LB were diluted 1:1000 in buffered LB and grown to the desired turbidity. For exponential phase cells (i.e., non-persisters), cultures were grown to a turbidity of 2.0 at 600 nm. For rifampicin-induced persisters, cultures were grown to a turbidity of 0.8 at 600 nm, exposed to rifampicin (100 μg/mL) for 30 min, centrifuged, and resuspended in fresh medium to remove the rifampicin. Non-persister and rifampicin-induced persister cultures were treated with MMC (100 μg/mL) for 1 h. pDNA was extracted from samples taken before and after MMC treatment and linearized by HindIII digestion. As a positive control, 2 μg of linearized pDNA from non-persisters was crosslinked in vitro with 500 μg/mL (1.5 mM) MMC in 0.2 mM EDTA, 50 mM NaCl, and 5 mM Tris (pH=7.6) with Na2S2O4 added six times at 10 min intervals to reach a final concentration of 2.25 mM (1.5× molarity of MMC). The in vitro crosslinking reaction was performed anaerobically on ice and the reaction was stopped by exposure to air. Linearized pDNA was visualized after electrophoresis through a TAE agarose gel and an alkaline denaturing agarose gel. Experiment was performed with at least two independent cultures.
# DNA = settings: Eastman 1987; cited from earlier work
# [6] = system: E. coli K-12 persister cells; test: Rifampicin-induced persister cell killing assay; assay type: cell-based, Escherichia coli
# Procedure: Rifampicin-pretreatment was used to convert nearly all the E. coli exponentially-growing cells to persister cells. In brief, overnight cultures (16 h) of E. coli BW25113 were diluted 1:1000 in buffered LB and grown to a turbidity of 0.8 at 600 nm (250 mL flask, 250 rpm). Cultures were treated with rifampicin (100 μg/mL) for 30 min (250 mL flask, 250 rpm), centrifuged, and resuspended in fresh medium to remove the rifampicin. A 1 mL culture was used for a drop assay to check cell viability at 0 h. […] After 3 h, 1 mL of culture was centrifuged at 10,000 rpm for 3 min, the supernatant was discarded, the cells were resuspended in 1 mL of normal saline, and the cell suspension was serially diluted for a drop assay to check cell viability. In addition, 1 mL samples were centrifuged, and the cell pellet resuspended in 150 μL of normal saline and spread on LB agar.
# To test whether lower concentrations than 500 μg/mL of cisplatin generate resistant mutants, 5 mL cultures of rifampicin-induced persister cells were treated with 200 μg/mL of cisplatin and cells were enumerated by the drop assay using LB agar, LB agar with 200 μg/mL of cisplatin (LBCP200), and LB agar with 500 μg/mL of cisplatin (LBCP500).
# [7] = treatment with 2×MIC (200 μg/mL) of cisplatin
SMILES,survival [1],effectiveness under wound-like conditions [2],biofilm dispersal [3],survival (P. aeruginosa PA14) [%],"fold more effective at killing VBNC cells than ciprofloxacin ([4]; VBNC population (RedoxSensor Green), MMC 10 μg/mL vs ciprofloxacin 5 μg/mL) [fold]","survival of the culturable population ([4]; culturable population of VBNC cultures, MMC 10 μg/mL, ciprofloxacin 5 μg/mL)",pDNA crosslinking (migration as double-stranded DNA under denaturing conditions) [5],intrastrand crosslinks at AG sequences (DNA),intrastrand crosslinks at GNG sequences (DNA) [%],intrastrand crosslinks at adjacent guanines (DNA),colonies from 1 mL samples ([6]; after the 3 h cisplatin treatment (500 μg/mL)) [colonies],"number of persister cells after treatment (drop assay) ([6]; cisplatin 500 μg/mL, 3 h, limit of detection) [cells/mL]","colonies on LBCP500 agar plates (spontaneous resistant mutants) [6, 7]","survivors on LBCP200 agar plates [6, 7] [%]"
"CO[C@@]12[C@H](COC(N)=O)C3=C(C(=O)C(C)=C(N)C3=O)N1C[C@@H]1N[C@@H]12 [MMC, mitomycin C]",eradicating cells beyond the limit of detection,eradicates pathogens; also recorded: more effective than ciprofloxacin and ampicillin,does not cause biofilm dispersal; also recorded: did not cause biofilm dispersal,0.0038±0.0005,7,eradicates the culturable population; also recorded: eradicating the culturable population,crosslinks DNA in E. coli K-12 persister cells; also recorded: high percentage of crosslinking,,,,,,,
"N.N.[Cl][Pt][Cl] [cisplatin, cis-diamminodichloroplatinum(II)]",,,,,,,,17-19% and 17 to 19%,< 8,54-65% and 54 to 65%,37±5,< 100,no colonies were found,0.08
